We go through 13 molecules from patent US7632845B2, “Phenyl quinolines and their use as estrogenic agents” (Wyeth, priority 2003, dated 2009).

One experiment addresses T1, ERβ (Homo sapiens, UniProt Q92731).
T1 construct: made in house; host or cells: E. coli
Nature of the experiment: Competition with [3H]-17β-estradiol for ERβ ligand binding domain. As to conditions: for IC50: crude E. coli lysate expressing human ERβ LBD (D, E, & F), 2 nM [3H]-17β-estradiol, 5-15 hours at room temperature; for α/β: receptor selectivity, ratio ERα IC50 / ERβ IC50. As for the experimental part:
(§1) Representative examples of the invention were evaluated for their ability to compete with 17β-estradiol for both ERα and ERβ. This test procedure provides the methodology for one to determine whether a particular compound binds to the estrogen receptor (and is therefore “estrogenic”) and whether there is selectivity for ERα or ERβ. […] 17β-estradiol is included as a standard reference for compalison. The procedure used is briefly described below. A crude lysate of E. coli expressing the estrogen receptor ligand binding domains (D, E, & F) of human ERα or ERβ was prepared. Both receptors and compounds were diluted in 1× Dulbecco's PBS (DPBS) supplemented with 1 mM EDTA. Using a high binding masked microtiter plate, 100 uL of receptor (1 uG/well) was combined with 2 nM [^3H]-17β-estradiol and various concentrations of compound. After between 5 and 15 hours at room temperature, the plates were washed with DPBS/1 mM EDTA and bound radioactivity determined by liquid scintillation counting.

The target of the next experiment is T2, ERα (Homo sapiens, UniProt P03372).
T2 construct: made in house; host or cells: E. coli
T2 sequence (P03372 311-547 limits assumed): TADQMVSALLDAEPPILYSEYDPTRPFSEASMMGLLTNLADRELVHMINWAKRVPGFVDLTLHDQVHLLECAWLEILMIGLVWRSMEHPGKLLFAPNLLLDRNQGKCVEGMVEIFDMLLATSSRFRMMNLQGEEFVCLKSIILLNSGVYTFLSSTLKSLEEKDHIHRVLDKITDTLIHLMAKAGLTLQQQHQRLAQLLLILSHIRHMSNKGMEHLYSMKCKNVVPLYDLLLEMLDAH
As to the kind of experiment: Competition with [3H]-17β-estradiol for ERα ligand binding domain. As to conditions: crude E. coli lysate expressing human ERα LBD (D, E, & F); 2 nM [3H]-17β-estradiol; 5-15 hours at room temperature. As for the experimental part: as §1

T1 sequence (Q92731 264-498 limits assumed): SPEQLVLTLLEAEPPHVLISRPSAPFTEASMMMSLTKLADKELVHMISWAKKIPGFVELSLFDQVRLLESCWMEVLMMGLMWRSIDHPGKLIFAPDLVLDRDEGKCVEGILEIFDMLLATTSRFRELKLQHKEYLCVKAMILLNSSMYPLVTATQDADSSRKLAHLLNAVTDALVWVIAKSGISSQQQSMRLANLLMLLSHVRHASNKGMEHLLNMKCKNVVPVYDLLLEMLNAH

One may read the IC50 as the concentration that inhibits the measured activity by half. Consider `Oc1cc(Br)c2nc(-c3ccc(O)c(F)c3)cc(Cl)c2c1` [Cpd 44, 8-Bromo-4-chloro-2-(3-fluoro-4-hydroxyphenyl)-quinolin-6-ol], for which, on ERβ, the 50% inhibitory concentration (IC50) was 0.00054 µM and the α/β was 57. The same molecule returned a 50% inhibitory concentration (IC50) at ERα of 0.031 µM.

`Oc1cc(Cl)c2nc(-c3ccc(O)c(F)c3)cc(Br)c2c1` [Cpd 45a, 4-Bromo-8-chloro-2-(3-fluoro-4-hydroxyphenyl)quinolin-6-ol]: at ERβ, the concentration for half-maximal inhibition (IC50) came out at 0.00035 µM and the α/β came out at 53. Also, at ERα, the half-maximal inhibitory concentration (IC50) amounted to 0.0187 µM.

On to `Oc1cc(Br)c2nc(-c3ccc(O)c(F)c3)cc(Br)c2c1` [Cpd 45b, 4,8-Dibromo-2-(3-fluoro-4-hydroxyphenyl)quinolin-6-ol], for which, at ERβ, the 50% inhibitory concentration (IC50) was found to be 0.0017 µM and the α/β is on record as 7. In addition, the IC50 at ERα was 0.0116 µM.

For the molecule `N#Cc1cc(-c2ccc(O)c(F)c2)nc2c(Cl)cc(O)cc12` [Cpd 47, 8-Chloro-4-cyano-2-(3-fluoro-4-hydroxyphenyl)quinolin-6-ol], the IC50 came to 0.0017 µM on ERβ and 0.192 µM on ERα. Besides, the α/β on ERβ was determined as 113.

For the molecule `C#Cc1cc(-c2ccc(O)c(F)c2)nc2c(Cl)cc(O)cc12` [Cpd 48, 8-Chloro-4-ethynyl-2-(3-fluoro-4-hydroxyphenyl)quinolin-6-ol], the IC50 stood at 0.00075 µM on ERβ and 0.037 µM on ERα. Besides, on ERβ, the α/β turned out to be 50.

Turning to `CCCCC#Cc1cc(-c2ccc(O)c(F)c2)nc2c(Cl)cc(O)cc12` [Cpd 49, 8-Chloro-2-(3-fluoro-4-hydroxyphenyl)-4-hex-1-ynylquinolin-6-ol], the IC50 at ERβ is 0.021 µM; at ERα, 0.304 µM. Further, the α/β at ERβ was 14.

`C=Cc1cc(-c2ccc(O)c(F)c2)nc2c(Cl)cc(O)cc12` [Cpd 50, 8-Chloro-2-(3-fluoro-4-hydroxyphenyl)-4-vinylquinolin-6-ol]: at ERβ, the half-maximal inhibitory concentration (IC50) was 0.00095 µM and the α/β was determined as 79. The same molecule displayed a half-maximal inhibitory concentration (IC50) at ERα of 0.075 µM.

Consider `N#Cc1ccc(-c2cc(-c3ccc(O)c(F)c3)nc3c(Cl)cc(O)cc23)cc1` [Cpd 51, 8-Chloro-4-(4-cyanophenyl)-2-(3-fluoro-4-hydroxyphenyl)quinolin-6-ol], for which, at ERβ, the IC50 worked out at 0.037 µM and the α/β is on record as 56. The same molecule had an IC50 on ERα of 2.07 µM.

As for `COc1ccc(-c2cc(-c3ccc(O)c(F)c3)nc3c(Cl)cc(O)cc23)cc1` [Cpd 52, 8-Chloro-2-(3-fluoro-4-hydroxyphenyl)-4-(4-methoxyphenyl)quinolin-6-ol], on ERβ, the half-maximal inhibitory concentration (IC50) turned out to be 0.013 µM and the α/β worked out at 15. In addition, the IC50 at ERα is 0.195 µM.

For the molecule `N#Cc1cc(O)cc2c(Cl)cc(-c3ccc(O)c(F)c3)nc12` [Cpd 56, 4-Chloro-8-cyano-2-(3-fluoro-4-hydroxyphenyl)quinolin-6-ol], at ERβ, the half-inhibitory concentration (IC50) amounted to 0.0011 µM and the α/β is recorded as 105. Also, at ERα, the IC50 is 0.116 µM.

For the molecule `N#Cc1cc(O)cc2c(Br)cc(-c3ccc(O)c(F)c3)nc12` [Cpd 57, 4-Bromo-8-cyano-2-(3-fluoro-4-hydroxyphenyl)quinolin-6-ol], at ERβ, the half-maximal inhibitory concentration (IC50) was 0.0014 µM and the α/β turned out to be 61. Moreover, the IC50 on ERα amounted to 0.086 µM.

In the case of `C#Cc1cc(-c2ccc(O)c(F)c2)nc2c(C#N)cc(O)cc12` [Cpd 58, 8-Cyano-4-ethynyl-2-(3-fluoro-4-hydroxyphenyl)quinolin-6-ol], on ERβ, the IC50 stood at 0.0013 µM and the α/β is given as 67. In addition, the half-inhibitory concentration (IC50) on ERα came out at 0.087 µM.

In the case of `N#Cc1ccc(-c2cc(O)cc3c(Cl)cc(-c4ccc(O)c(F)c4)nc23)cc1` [Cpd 61, 4-Chloro-8-(4-cyanophenyl)-2-(3-fluoro-4-hydroxyphenyl)quinolin-6-ol], at ERβ, the IC50 was determined as 0.013 µM and the α/β is given as 40. For the same molecule, the IC50 on ERα was determined as 0.522 µM.
